These results are taken from patent publication US12285393B2, “Roles of modulators of intersectin-Cdc42 signaling in Alzheimer's disease” (priority 2017, dated 2025).

One test has as its target T1, GTP-bound (active) Cdc42 (Mus musculus, UniProt P60766).
T1 construct: endogenous in cells; host or cells: Swiss 3T3 cells
Kind of test: G-LISA in serum-starved Swiss 3T3 cells. The test is classed as cell-based. Conditions: 50 μM. On the procedure: G-LISA: G-LISA is an ELISA-based assay that allows a quantitative determination of the levels of GTP-bound (active) Cdc42 in cellular lysates. Swiss 3T3 cells (˜50% confluent) were starved for 24h then treated with ZCL278 (50 μM) for 0, 5, 10, 15, 30, or 60 m. Cells were lysed and G-LISA conducted according to Cytoskeleton G-LISA protocol. Briefly, ˜300 μL of lysis buffer was added, cells were scraped, transferred to a centrifuge tube, and centrifuged at 0° C. for 1 min at 13,200 rpm. Samples were flash frozen in liquid nitrogen. Approximately […] protein was loaded into duplicate wells for G-LISA. Absorbance was measured at 490 nm.

Another test deals with Cdc42 (Homo sapiens, UniProt P60953). Particulars: in the presence of activating upstream signaling compounds; cited from earlier work.

SMILES strings stand for the structures.

T1 sequence (P60766 whole entry): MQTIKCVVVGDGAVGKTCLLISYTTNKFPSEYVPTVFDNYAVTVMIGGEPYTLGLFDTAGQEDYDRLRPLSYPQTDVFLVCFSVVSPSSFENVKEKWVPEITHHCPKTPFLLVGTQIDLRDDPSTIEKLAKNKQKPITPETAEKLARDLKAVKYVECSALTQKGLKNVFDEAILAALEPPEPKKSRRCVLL
Chain of Cdc42 (P60953 whole entry, species assumed): as the sequence (P60766 whole entry) above

For the compound `Cc1cc(C)nc(NS(=O)(=O)c2ccc(NC(=S)NC(=O)COc3ccc(Br)cc3Cl)cc2)n1` [ZCL278, 4-(3-(2-(4-bromo-2-chloro-phenoxy)-acetyl)-thioureido)-N-(4,6-dimethylpyrimidin-2-yl)-benzenesulfonamide], on GTP-bound (active) Cdc42 (0-60 m, serum-starved Swiss 3T3 cells), the “effect on GTP-bound (active) Cdc42” value is listed as “activates Cdc42”. The “time of Cdc42 activity peak” value on GTP-bound (active) Cdc42 (another peak) was “about 60 min”; on GTP-bound (active) Cdc42 (first peak), “Approximately 15 min”. The “effect on Cdc42” value at Cdc42 is “inhibit Cdc42”.
